In the CheMixHub viscosity set:

Assay: xn = mol fraction of the nth substance listed
Conditions: 101.33 kPa

CCOCCO + CS(C)=O
viscosity [mPa·s]
Conditions | 298.15 K | 303.15 K | 308.15 K | 313.15 K | 318.15 K
x1 = 0.0436 | 2 | 1.8 | 1.66 | 1.52 | 1.38
x1 = 0.0879 | 2 | 1.8 | 1.66 | 1.53 | 1.38
x1 = 0.1327 | 2 | 1.81 | 1.67 | 1.53 | 1.38
x1 = 0.1781 | 2.01 | 1.81 | 1.67 | 1.53 | 1.38
x1 = 0.2242 | 2.01 | 1.82 | 1.68 | 1.54 | 1.38
x1 = 0.2709 | 2.02 | 1.82 | 1.68 | 1.54 | 1.38
x1 = 0.3183 | 2.02 | 1.82 | 1.68 | 1.54 | 1.38
x1 = 0.3663 | 2.03 | 1.83 | 1.69 | 1.54 | 1.38
x1 = 0.415 | 2.02 | 1.83 | 1.68 | 1.54 | 1.38
x1 = 0.4644 | 2.02 | 1.82 | 1.68 | 1.54 | 1.38
x1 = 0.5145 | 2.02 | 1.82 | 1.68 | 1.54 | 1.37
x1 = 0.5653 | 2.01 | 1.81 | 1.67 | 1.53 | 1.37
x1 = 0.6169 | 2.01 | 1.81 | 1.67 | 1.52 | 1.36
x1 = 0.6692 | 1.99 | 1.79 | 1.65 | 1.51 | 1.35
x1 = 0.7223 | 1.98 | 1.78 | 1.64 | 1.49 | 1.33
x1 = 0.7762 | 1.96 | 1.75 | 1.62 | 1.48 | 1.31
x1 = 0.8309 | 1.94 | 1.73 | 1.59 | 1.45 | 1.29
x1 = 0.8864 | 1.92 | 1.71 | 1.56 | 1.43 | 1.27
x1 = 0.9428 | 1.88 | 1.67 | 1.53 | 1.39 | 1.24
